Patent US12145927B2 (BRISTOL-MYERS SQUIBB COMPANY, priority 2018, dated 2024)

Key:
human IDO1 = molecular target: T1, human IDO1 (Homo sapiens, UniProt P14902); experiment: IDO inhibition assay in human IDO1/HEK293 cells (IDO1 HEK Human); assay type: cell-based; conditions: HEK293 cells stably expressing human IDO1; 20 hours incubation; absorbance at 490 nm after Ehrlich reagent
T1 construct: expressed in transfected cells
In short: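 Kynurenine output of stably IDO1-transfected HEK293 cells was measured by absorbance at 490 nm after mixing supernatant with 0.2% Ehrlich reagent, following TCA stop (0.2% final, 50° C., 30 min). Cells were incubated 20 hours with compound. Inhibition was scaled between DMSO and 500 nM reference standard.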

[1] = molecular target: T2, indoleamine 2,3-dioxygenase (IDO) (Homo sapiens, UniProt P14902); experiment: HeLa cell-based indoleamine 2,3-dioxygenase (IDO) assay (IDO1 HeLa); conditions: HeLa cells, IFNγ 25 ng/mL, 48 hour incubation; kynurenine by absorbance at 480 nm
T2 construct: replaced with media containing IFNγ (#285-IF/CF, R&D Systems) at a final concentration of 25 ng/mL; endogenous in cells; host or cells: HeLa (ATCC CCL-2), IFNγ-stimulated
Method: Assessment of inhibitor activity in HeLa cell-based indoleamine 2,3-dioxygenase (IDO) assay:
HeLa (ATCC® CCL-2) cells were obtained from the ATCC® and cultured in Dulbecco's Modified Eagle Medium supplemented with 4.5 g/L glucose, […] (#10-013-CV, Corning), 2 mM L-alanyl-L-glutamine dipeptide (#35050-061, Gibco), 100U/mL penicillin, 100 μg/mL streptomycin (#SV30010, HyClone) and 10% fetal bovine serum (#SH30071.03 HyClone). Cells were maintained in a humidified incubator at 37° C. in 5% CO2.
IDO activity was assessed as a function of kynurenine production as follows: HeLa cells were seeded in a 96-well culture plate at a density of 5,000 cells/well and allowed to equilibrate overnight. After 24 hours, the media was aspirated and replaced with media containing IFNγ (#285-IF/CF, R&D Systems) at a final concentration of 25 ng/mL. A serial dilution of each test compound was added to the cells in a total volume of 200 μL of culture medium. After a further 48 hour incubation, 170 μL of supernatant was transferred from each well to a fresh 96-well plate. 12.1 μL of 6.1N trichloroacetic acid (#T0699, Sigma-Aldrich) was added to each well and mixed, followed by incubation at 65° C. for 20 minutes to hydrolyze N-formylkynurenine, the product of indoleamine 2,3-dioxygenase, to kynurenine. The reaction mixture was then centrifuged for 10 mins at 500×g to sediment the precipitate. 100 μL of the supernatant was transferred from each well to a fresh 96-well plate. 100 μl of 2% (w/v) p-dimethylaminobenzaldehyde (#15647-7, Sigma-Aldrich) in acetic acid (#A6283, Sigma-Aldrich) was added to each well mixed and incubated at RT for 20 mins. Kynurenine concentrations were determined by measuring absorbance at 480 nm and calibrating against an L-kynurenine (#K8625, Sigma-Aldrich) standard curve using a SPECTRAMAX® M2e microplate reader (Molecular Devices). The percentage activity at each inhibitor concentration was determined and IC50 values assessed using nonlinear regression.

T2 sequence (P14902 whole entry): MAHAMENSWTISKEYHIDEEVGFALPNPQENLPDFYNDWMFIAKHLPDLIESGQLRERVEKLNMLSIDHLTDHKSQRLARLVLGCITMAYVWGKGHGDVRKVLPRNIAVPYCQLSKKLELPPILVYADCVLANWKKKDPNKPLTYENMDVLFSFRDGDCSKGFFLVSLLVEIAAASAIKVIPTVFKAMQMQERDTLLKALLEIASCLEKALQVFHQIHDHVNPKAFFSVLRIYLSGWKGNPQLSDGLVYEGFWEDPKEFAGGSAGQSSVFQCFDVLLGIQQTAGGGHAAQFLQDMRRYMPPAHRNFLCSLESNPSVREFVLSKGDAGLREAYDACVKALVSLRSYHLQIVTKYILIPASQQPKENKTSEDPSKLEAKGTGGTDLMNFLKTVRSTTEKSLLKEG
T1 sequence (P14902 whole entry): as above

IC50 (human IDO1): 18.7 nM
IC50 [1]: 13.9 nM
Compound: Cc1ccc(NC(=O)Nc2cc(-c3ccccc3-c3nn[nH]n3)cc3c2OCCCC3c2ccccc2)cc1 (centres unmarked) [Example 1, 1-(7-(2-(1H-tetrazol-5-yl)phenyl)-5-phenyl-2,3,4,5-tetrahydrobenzo[b]oxepin-9-yl)-3-(p-tolyl)urea]
